Patent US7300939B2, “Substituted 1-propiolylpiperazine compounds, their preparation and use” (Gruenenthal GmbH, priority 2005, dated 2007)

Target: T1, mGluR5 receptor (Sus scrofa, UniProt I3LUI7)
T1 construct: from tissue; host or cells: pig brain halves without medulla, cerebellum and pons
Assay: [3H]-MPEP binding in the mGluR5 receptor binding assay (pig brain homogenate)
Conditions: for mGluR5-receptor (% inhibition 10 μM) in pigs: pig brain homogenate, 5 nM [3H]-MPEP; for IC50: Table II, unit inferred
Experimental: I. Method the Determination of the Inhibition of the [^3H]-MPEP Binding in the mGluR5 Receptor Binding Assay
Pig brain homogenate is prepared by homogenization (Polytron PT 3000, Kinematica AG, 10,000 revolutions per minute 90 seconds) of pig brain halves without medulla, cerebellum and pons in a buffer solution having a pH of 8.0 (30 mM of hepes, Sigma, order no. H3375+1 tablet of Complete to 100 ml, Roche Diagnostics, order no. 1836145) in a ratio of 1:20 (brain weight/volume) and differential centrifugation at 900×g and 40,000×g. In each case 450 μg of protein from brain homogenate are incubated with 5 nM [^3H]-MPEP (Tocris, order no. R1212) (MPEP=2-methyl-6-(3-methoxyphenyl)ethynylpyridine) and the compounds to be investigated (10 μM in the test) in a buffer solution (as above) in 250 μl incubation batches in 96-well microtiter plates at room temperature 60 min.
Thereafter, the batches are filtered with the aid of a Brandel cell harvester (Brandel, Robotic 9600 model) onto Unifilter plates with glass fiber filter mats (Perkin Elmer, order no. 6005177) and then rinsed with buffer solution (as above) 3 times with 250 μl per sample each time. The filter plates are then dried 60 min at 55° C. 30 μl Ultima Gold™ scintillator (Packard BioScience, order no. 6013159) are subsequently added per well and, after 3 hours, the samples are measured on a β-counter (Mikrobeta, Perkin Elmer). The non-specific binding is determined by addition of 10 μM of MPEP (Tocris, order no. 1212).

T1 sequence (I3LUI7 19-1212): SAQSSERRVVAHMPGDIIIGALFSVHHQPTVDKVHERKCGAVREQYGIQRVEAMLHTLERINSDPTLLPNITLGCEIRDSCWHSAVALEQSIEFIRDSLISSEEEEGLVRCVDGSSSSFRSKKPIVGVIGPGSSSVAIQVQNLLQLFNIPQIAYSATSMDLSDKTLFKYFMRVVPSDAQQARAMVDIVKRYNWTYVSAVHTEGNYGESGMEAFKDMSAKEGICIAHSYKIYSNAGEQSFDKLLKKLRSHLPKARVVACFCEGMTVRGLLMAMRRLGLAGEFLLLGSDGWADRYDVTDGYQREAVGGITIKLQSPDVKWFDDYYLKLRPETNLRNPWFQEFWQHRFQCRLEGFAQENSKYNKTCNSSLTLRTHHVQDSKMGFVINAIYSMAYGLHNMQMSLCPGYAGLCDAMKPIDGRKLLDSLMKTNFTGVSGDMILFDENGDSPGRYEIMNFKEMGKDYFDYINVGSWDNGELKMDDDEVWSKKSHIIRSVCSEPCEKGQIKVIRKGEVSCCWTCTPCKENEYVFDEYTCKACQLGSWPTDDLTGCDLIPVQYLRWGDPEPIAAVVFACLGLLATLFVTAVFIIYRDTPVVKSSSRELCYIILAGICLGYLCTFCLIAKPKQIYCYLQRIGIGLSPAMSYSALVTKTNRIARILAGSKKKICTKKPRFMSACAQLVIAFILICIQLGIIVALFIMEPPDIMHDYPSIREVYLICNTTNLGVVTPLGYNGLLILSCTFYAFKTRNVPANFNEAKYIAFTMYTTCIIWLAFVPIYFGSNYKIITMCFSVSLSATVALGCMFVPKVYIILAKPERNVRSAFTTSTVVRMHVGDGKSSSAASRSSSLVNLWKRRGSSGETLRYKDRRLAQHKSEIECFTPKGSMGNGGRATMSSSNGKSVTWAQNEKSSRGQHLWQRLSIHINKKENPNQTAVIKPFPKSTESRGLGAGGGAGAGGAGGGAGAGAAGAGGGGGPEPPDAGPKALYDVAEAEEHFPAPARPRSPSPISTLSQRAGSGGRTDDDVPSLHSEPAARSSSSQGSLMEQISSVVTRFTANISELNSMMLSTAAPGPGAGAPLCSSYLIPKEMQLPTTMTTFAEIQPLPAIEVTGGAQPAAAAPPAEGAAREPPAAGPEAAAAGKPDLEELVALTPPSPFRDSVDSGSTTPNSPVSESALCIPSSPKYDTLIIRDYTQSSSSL

| mGluR5-receptor (% inhibition 10 μM) in pigs [%] | IC50 [µM] | Compound |
| --- | --- | --- |
| – | 0.98 | O=C(C#Cc1cccs1)N1CCN(c2nccs2)CC1 [Example AAA10, 4-(Thiazol-2-yl)-1-(3-(2-thienyl)propiolyl)piperazine] |
| 33 | – | Cc1ccccc1C#CC(=O)N1CCN(c2nccs2)CC1.Cl [Example AAA53, 4-(Thiazol-2-yl)-1-(3-(2-tolyl)propiolyl)piperazine hydrochloride] |
| 82 | – | O=C(C#Cc1cccc([N+](=O)[O-])c1)N1CCN(c2nccs2)CC1 [Example AAA28, 4-(Thiazol-2-yl)-1-(3-(3-nitrophenyl)propiolyl)piperazine] |
| – | 10.5 | O=C(C#Cc1ccc(F)cc1F)N1CCN(c2nccs2)CC1 [CCC22, 4-(Thiazol-2-yl)-1-(3-(2,4-difluorophenyl)propiolyl)piperazine] |
| – | 0.7 | O=C(C#Cc1ccc2[nH]ccc2c1)N1CCN(c2nccs2)CC1 [Example AAA9, 4-(Thiazol-2-yl)-1-(3-(indol-5-yl)propiolyl)piperazine] |
| – | 0.062 | O=C(C#Cc1cccc(C(F)F)c1)N1CCN(c2nccs2)CC1 [Example AAA00122, 4-(Thiazol-2-yl)-1-(3-(3-difluoromethylphenyl)propiolyl)piperazine] |
| 87 | – | COc1cccc(C#CC(=O)N2CCN(c3nccs3)CC2)c1 [Example AAA13, 4-(Thiazol-2-yl)-1-(3-(3-methoxyphenyl)propiolyl)piperazine] |
| 52 | – | O=C(C#Cc1ccsc1)N1CCN(c2nccs2)CC1 [Example AAA11, 4-(Thiazol-2-yl)-1-(3-(3-thienyl)propiolyl)piperazine] |
| 82 | – | O=C(C#Cc1ccc2ccccc2c1)N1CCN(c2nccs2)CC1 [Example AAA38, 4-(Thiazol-2-yl)-1-(3-naphth-2-ylpropiolyl)piperazine] |
| 93 | – | N#Cc1cccc(C#CC(=O)N2CCN(c3nccs3)CC2)c1 [Example AAA16, 4-(Thiazol-2-yl)-1-(3-(3-cyanophenyl)propiolyl)piperazine] |
| – | 1.39 | Cc1cc(F)cc(C#CC(=O)N2CCN(c3nccs3)CC2)c1 [Example AAA00110, 4-(Thiazol-2-yl)-1-(3-(3-fluoro-5-methylphenyl)propiolyl)piperazine] |
| 88 | – | COCc1cccc(C#CC(=O)N2CCN(c3nccs3)CC2)c1 [Example AAA42, 4-(Thiazol-2-yl)-1-(3-(3-methoxymethylphenyl)propiolyl)piperazine] |
| 57 | – | O=C(C#Cc1ccccn1)N1CCN(c2nccs2)CC1 [Example AAA32, 4-(Thiazol-2-yl)-1-(3-pyrid-2-ylpropiolyl)piperazine] |
| – | 3.19 | O=C(C#Cc1ccoc1)N1CCN(c2nccs2)CC1 [Example AAA74, 4-(Thiazol-2-yl)-1-(3-(3-furyl)propiolyl)piperazine] |
| 74 | – | Cn1ccc2cc(C#CC(=O)N3CCN(c4nccs4)CC3)ccc21 [Example AAA39, 4-(Thiazol-2-yl)-1-(3-(1-methyl-indol-5-yl)propiolyl)piperazine] |
| – | 1.24 | Cn1ccc2ccc(C#CC(=O)N3CCN(c4nccs4)CC3)cc21 [Example AAA00108, 4-(Thiazol-2-yl)-1-(3-(1-Methyl-indol-6-yl)propiolyl)piperazine] |
| 30 | – | COc1ccc(Br)c(C#CC(=O)N2CCN(c3nccs3)CC2)c1 [CCC23, 4-(Thiazol-2-yl)-1-(3-(2-bromo-5-methoxyphenyl)propiolyl)piperazine] |
| 70 | – | O=C(C#Cc1ccccc1Cl)N1CCN(c2nccs2)CC1 [Example AAA23, 4-(Thiazol-2-yl)-1-(3-(2-chlorophenyl)propiolyl)piperazine] |
| 34 | – | COc1ccccc1C#CC(=O)N1CCN(c2nccs2)CC1 [Example AAA12, 4-(Thiazol-2-yl)-1-(3-(2-methoxyphenyl)propiolyl)piperazine] |
| 80 | – | CSc1cccc(C#CC(=O)N2CCN(c3nccs3)CC2)c1 [Example AAA40, 4-(Thiazol-2-yl)-1-(3-(3-methylmercaptophenyl)propiolyl)piperazine] |
| 31 | – | Cc1cccc(C#CC(=O)N2CCN(c3nccs3)CC2)c1F [Example AAA00111, 4-(Thiazol-2-yl)-1-(3-(2-fluoro-3-methylphenyl)propiolyl)piperazine] |

The next lines start with the compound.

| Compound | mGluR5-receptor (% inhibition 10 μM) in pigs [%] | IC50 [µM] |
| --- | --- | --- |
| Cc1nc(N2CCN(C(=O)C#Cc3ccccc3)CC2)sc1C [Example AAA89, 4-(4,5-Dimethylthiazol-2-yl)-1-(3-phenylpropiolyl)piperazine] | 86 | – |
| O=C(C#Cc1ccccc1)N1CCN(c2nc(Br)cs2)CC1 [Example AAA97, 4-(4-Bromothiazol-2-yl)-1-(3-phenylpropiolyl)piperazine] | – | 0.72 |
| Cc1cnc(N2CCN(C(=O)C#Cc3ccccc3)CC2)s1 [Example AAA88, 4-(5-Methylthiazol-2-yl)-1-(3-phenylpropiolyl)piperazine] | 94 | – |
| C[C@@H]1CN(c2nccs2)C[C@H](C)N1C(=O)C#Cc1ccccc1 [Example AAA75, cis-2,6-Dimethyl-4-(thiazol-2-yl)-1-(3-phenylpropiolyl)piperazine] | 97 | – |
| O=C(C#Cc1ccccc1)N1CCN(c2nc(C(F)(F)F)cs2)CC1 [Example AAA93, 4-(4-Trifluoromethylthiazol-2-yl)-1-(3-phenylpropiolyl)piperazine] | 52 | – |
| O=C(C#Cc1ccccc1)N1CCN(c2nccs2)CC1c1ccccc1 (stereo not drawn) [Example AAA72, 2-Phenyl-4-(thiazol-2-yl)-1-(3-phenylpropiolyl)piperazine] | 81 | – |
| Cc1csc(N2CCN(C(=O)C#Cc3ccccc3)CC2)n1 [Example AAA92, 4-(4-Methylthiazol-2-yl)-1-(3-phenylpropiolyl)piperazine] | 87 | – |
| O=C(C#CC1CCCCC1)N1CCN(c2nccs2)CC1 [Example AAA69, 4-(Thiazol-2-yl)-1-(3-cyclohexylpropiolyl)piperazine] | 72 | – |
| CC(C)(C)c1csc(N2CCN(C(=O)C#Cc3ccc(N)cc3)CC2)n1 [Example AAA00107, 4-(4-tert-Butylthiazol-2-yl)-1-(3-(4-aminophenyl)propiolyl)piperazine] | 30 | – |
| CCOC(=O)c1cnc(N2CCN(C(=O)C#Cc3ccccc3)CC2)s1 [Example AAA76, 4-(5-Carboxy-thiazol-2-yl)-1-(3-phenylpropiolyl)piperazine ethyl ester] | – | 0.17 |
| O=C(C#Cc1ccccc1)N1CCN(c2ncc(Cl)s2)CC1 [Example AAA95, 4-(5-Chlorothiazol-2-yl)-1-(3-phenylpropiolyl)piperazine] | 58 | – |
| COc1nsc(N2CCN(C(=O)C#Cc3ccccc3)CC2)n1 [Example AAA00102, 4-(3-Methoxy-1,2,4-thiadiazol-5-yl)-1-(3-phenylpropiolyl)piperazine] | 61 | – |
| CC1CN(c2nccs2)CCN1C(=O)C#Cc1ccccc1 (stereo not drawn) [Example AAA63, 2-Methyl-4-(thiazol-2-yl)-1-(3-phenylpropiolyl)piperazine] | 89 | – |
| C[C@@H]1CN(c2nccs2)CCN1C(=O)C#Cc1ccccc1 [Example AAA65, (R)-2-Methyl-4-(thiazol-2-yl)-1-(3-phenylpropiolyl)piperazine] | 93 | – |
| O=C(C#Cc1ccccc1)N1CCN(c2nc(C(F)(F)F)ns2)CC1 [Example AAA00105, 4-(3-Trifluoromethyl-1,2,4-thiadiazol-5-yl)-1-(3-phenylpropiolyl)piperazine] | 65 | – |
| CC1CN(c2nccs2)CCN1C(=O)C#Cc1ccccc1.Cl (stereo not drawn) [Example AAA66, 2-Methyl-4-(thiazol-2-yl)-1-(3-phenylpropiolyl)piperazine hydrochloride] | 93 | – |
| CC1CN(c2nccs2)CCN1C(=O)C#Cc1cccc(Cl)c1 (stereo not drawn) [AAA00119, 2-Methyl-4-(thiazol-2-yl)-1-(3-(3-chlorophenyl)propiolyl)piperazine] | – | 0.009 |
| O=C(C#Cc1ccccc1F)N1CCN(c2nc(-c3ccccc3)ns2)CC1 [CCC3, 4-(3-Phenyl-1,2,4-thiadiazol-5-yl)-1-(3-(2-fluorophenyl)propiolyl)piperazine] | 28 | – |
| O=C(C#Cc1ccccc1)N1CCN(c2nc(Cl)cs2)CC1 [Example AAA94, 4-(4-Chlorothiazol-2-yl)-1-(3-phenylpropiolyl)piperazine] | 91 | – |
| O=C(C#Cc1ccc(F)cc1)N1CCN(c2nc(-c3ccccc3)ns2)CC1 [CCC5, 4-(3-Phenyl-1,2,4-thiadiazol-5-yl)-1-(3-(4-fluorophenyl)propiolyl)piperazine] | 25 | – |
| CC(C)(C)C1CN(c2nccs2)CCN1C(=O)C#Cc1ccccc1 (stereo not drawn) [AAA00121, 2-tert-Butyl-4-(thiazol-2-yl)-1-(3-phenylpropiolyl)piperazine] | – | 0.11 |
